Patent publication US11370822B2, “Self-assembling peptide for activating human mast cells” (The Governors of the University of Alberta, priority 2017, dated 2022)
Where two headings read alike, the source gives them in different places.

What was measured:
LAD2 cells [1] = assay: Cell viability analysis using XTT assay; settings: for cytotoxicity to LAD2 cells (XTT): PAMP-12 10 μM, 0.5% w/v hydrogel matrices (pure (RADA)4 or 20% w/w (RADA)4-GG-(PAMP-12)), 4 h or 24 h; for effect on LAD2 proliferation (XTT): same treatments, after 24 h incubation
Description: (§2) LAD2 cells were suspended in culture medium (50 μl, 1.0×10^6 cells/ml) and placed on top of 50 μl of hydrogel matrix or culture medium solution. After an 4 h or 24 h incubation, cell viability was measured using a 2,3-bis-(2-methoxy-4-nitro-5-sulfophenyl)-2H-tetrazolium-5-carboxanilide (XTT) proliferation kit (Roche Molecular Biochemicals, Indianapolis, Ind., USA), according to the manufacturer's supplied instructions. To facilitate a uniform distribution of color throughout the hydrogel matrix, 50 μl of DMSO was added into each well prior to analysis.

LAD2 cells [2] = assay: β-hex release assay, LAD2 cells on top of hydrogel matrices; format: cell-based, human; settings: for degranulation activity (β-hex release): 30 min
Description: (§1) (RADA)4 (SEQ ID NO: 1) and (RADA)4-GG-(PAMP-12) (SEQ ID NO:2) stock solutions (1.0% w/v) were prepared by dissolving peptide powder in syringe filtered (0.2 μm) Milli-Q water. Peptide stock solutions were sonicated for 30 min to avoid bulk aggregates and reduce viscosity. (RADA)4 peptide solutions with different proportion of (RADA)4-GG-(PAMP-12) (SEQ ID NO: 2) (0, 2.5, 5, 10, 20, 40, 80, 100% w/w) were mixed with 1x PBS (pH 7.4) at a ratio of 1:1 (v/v) to get hydrogel matrices with peptide concentration of 0.5% w/v. Fifty μl of the mixture was placed at the bottom of a 96-well plate or well insert, overnight at 4° C. and washed with HEPES buffer (10 mM, with 0.4% BSA, pH 7.4) or PBS for 3 times.
LAD2 (Laboratory of Allergic Diseases 2) human mast cells were incubated in StemPro-34 SFM medium (Life Technologies, Rockville, Md.) supplemented with 2 mM L-glutamine, 100 I/ml penicillin, 50 μg/ml streptomycin, 100 ng/ml recombinant human SCF (Peprotech, Rocky Hill, N.J.). Cells were maintained at 0.1×10^6 cells/ml at 37° C. and 5% CO2. Cell suspensions were isolated via centrifugation (200 g, 5 min, at room temperature) and media was replaced every 3-7 days.
To evaluate the effect of the matrices on degranulation, 0.25×10^5 LAD2 cells in 50 μl HEPES buffer (10 mM, with 0.4% BSA, pH 7.4) were carefully placed on the top of 50 μl hydrogel matrices, and the β-hex release was measured as described. After 30 min incubation, cell free supernatant and total cells with the matrices were collected by centrifugation (300 g, 5 min) for analysis.

[3] = AFM morphology of self-assembling peptide nanofiber matrices; format: physicochemical
Description: as §1
The morphology of the hydrogel matrices were measured using Dimension 3100 Nanoman Atomic Force Microscopy (AFM, Veeco Metrology, LLC) with tapping mode, tip radius of 8 nm. Matrix solutions used in AFM studies were prepared by 500 times diluted with Mili-Q water. A drop (5 ul) of each solution was placed on freshly cleaved mica substrate then rise with water. The surfaces were air dried overnight at room temperature before being imaged.

TPSAB1 (tryptase) mRNA = assay: In vitro activation of mast cells in human skin, ddPCR for TPSAB1 expression; settings: human skin without epidermis (NSE), 4 h; 10 μM PAMP-12, pure (RADA)4 matrix or matrix with 20% w/w (RADA)4-GG-(PAMP-12); NS average taken as 100
Source text: Human skin was harvested from abdominoplasty surgical discard specimens obtained following written informed consent as approved by the University of Alberta research ethics board. All tissue was from healthy non-smokers in their 30s. Human skin was separated from the underlying adipose tissue using a 15 blade scalpel. The epidermis was then removed using a […] dermatome (Integra LifeSciences Corporation, Cincinnati, Ohio) set to 0.25 mm thickness. The deepithelialized dermis was then divided into multiple pieces 1 cm^2 using sharp surgical scissors. Control or active hydrogel matrix (100 μl) was then layered onto the exposed surface of the dermis. […] For some groups, PBS and PAMP-12 PBS solution were used as negative and positive control. Following this, tissue pieces were removed and snap frozen in liquid nitrogen and stored at -80° C. until further processing. […] To obtain the absolute quantity of TPSAB1 transcripts, ddPCR (QX100, Bio-Rad, Hercules, Calif.) was employed using 5 ng of each cDNA sample and ddPCR supermix for the specific probes (Bio-Rad) according to manufacturer's protocols. […] QuantaSoft Software (Bio-Rad) was employed to analyze ddPCR results, and the absolute concentration of TPSAB1 transcripts in each sample determined by ddPCR was divided by the ACTB transcripts and presented as percentage based on normal skin samples (NS average taken as 100).

LAD2 cells [4] = assay: β-hexosaminidase (β-hex) release assay, peptide solutions; format: cell-based, human; settings: 30 min; for LAD2 degranulation (β-hex release): peptide solutions, various concentrations, compared with PBS; for β-hex release (plateau): solution free peptide, 10 μM
Description: LAD2 (Laboratory of Allergic Diseases 2) human mast cells were incubated in StemPro-34 SFM medium (Life Technologies, Rockville, Md.) supplemented with 2 mM L-glutamine, 100 I/ml penicillin, 50 μg/ml streptomycin, 100 ng/ml recombinant human SCF (Peprotech, Rocky Hill, N.J.). Cells were maintained at 0.1×10^6 cells/ml at 37° C. and 5% CO2. Cell suspensions were isolated via centrifugation (200 g, 5 min, at room temperature) and media was replaced every 3-7 days. For each well, 0.25×10^5 LAD2 cells were washed and resuspended in 90 μl HEPES buffer (10 mM, with 0.4% BSA, pH 7.4), and activated by adding 10 μl peptide solutions (PAMP-12 […], (RADA)4 (SEQ ID NO: 1) and (RADA)4-GG-(PAMP-12) (SEQ ID NO: 2)) in PBS (1×, pH 7.4) for 30 min at 37° C., the final concentrations of peptide are 0, 0.01, 0.1, 1, 10, 20, 50, 100 μM respectively. β-hex release was quantified through analysis of the hydrolysis of p-nitrophenyl N-acetyl-b-D-glucosamide (Sigma Aldrich, Oakville, ON, Canada) in 0.1 M sodium citrate buffer (pH 4.5) for both the supernatant and in total cell lysates solubilized with 0.01% Triton X-100 for 90 min at 37° C. The reaction was stopped by adding glycine buffer (pH 10.7). Read absorbance at 405 nm with reference filter at 620 nm. The percent-age of β-hex released into the supernatant was calculated by the β-hex contents of supernatant and cell lysate.

LAD2 cells [5] = assay: Laser-scanning confocal microscopy of LAD2 cells on hydrogel matrices (adhesion, F-actin); format: cell-based, human; settings: 0.5% w/v matrix (pure (RADA)4 or 20% w/w (RADA)4-GG-(PAMP-12))
Description: For each sample, 0.25×10^5 LAD2 cells in 50 μl culture medium were allowed to incubate with 50 μl hydrogel matrix for 30 min at 37° C. After incubation, the medium was disposed, and hydrogel matrix was carefully washed by warm PBS for 3 times to remove non-adherent cells. Hydrogel matrices were then fixed in 3.7% paraformaldehyde in PBS for 20 min at room temperature and 3 times washed in PBS. Cells were permeabilized with 0.1% Triton X-100 in PBS for 5 min, washed in PBS for 3 times, then followed by 3% BSA blocking for 30 min and 3 times washing in PBS. To stain F-actin, samples were incubated with 0.5 μM Phalloidin-FITC (Sigma-Aldrich, USA) for 30 minutes and followed by 3 times washing in PBS. Cell nuclei were stained with 1 ug/mL DAPI (Sigma-Aldrich, USA) in PBS for 30 min. After 3 times washing in PBS, Z-slice images of the matrix with adhered LAD2 cells were collected using Laser Scanning Confocal Microscopy (LSM710, Carl Zeizz AG, Oberkochen, Germany) with an inverted 10× objective.

LAD2 cells [6] = assay: β-hex release assay, co-culture with well insert (0.2 μm pore size filter); format: cell-based, human; settings: 30 min
Description: To evaluate the immobilization effect of (RADA)4-GG-(PAMP-12) (SEQ ID NO: 2) in the matrices. As shown in FIG. 6 (A), 0.25×10^5 LAD2 cells in 100 μl HEPES buffer (10 mM, with 0.4% BSA, pH 7.4) were co-incubated with well inserts that contain 50 μl of self-assembling matrix (20% and 100% w/w of (RADA)4-GG-(PAMP-12) (SEQ ID NO: 2)) or PAMP-12 (SEQ ID NO: 3) solution in HEPES buffer (10 mM, with 0.4% BSA, pH 7.4) with the corresponding concentration (0.29 and 1.46 mM respectively). After 30 min incubation, inserts were removed, and the β-hex release was measured as described.

LAD2 cells [7] = tested on: LAD2 cells
Description: as §2

[8] = pure (RADA)4-GG-(PAMP-12), 0.5% w/v

Row | Compound | cytotoxicity to LAD2 cells (XTT) (LAD2 cells [1]) | effect on LAD2 proliferation (XTT) (LAD2 cells [1]) | degranulation activity (β-hex release) (LAD2 cells [2]; 0.5% w/v hydrogel matrix with 20% w/w (RADA)4-GG-(PAMP-12)) [%] | degranulation activity (β-hex release) (LAD2 cells [2]; 0.5% w/v hydrogel matrix with 40% w/w (RADA)4-GG-(PAMP-12)) [%] | degranulation activity versus proportion in matrix (LAD2 cells [2]; (RADA)4-GG-(PAMP-12) from 2.5 to 20% w/w in matrix) | nanofiber length (most of the nanofibers) ([3]; 20% and 40% w/w (RADA)4-GG-(PAMP-12) in (RADA)4, 0.5% w/v) [nm] | nanofiber length (most of the nanofibers) [3, 8] | nanoparticle size [3, 8] | nanostructure morphology ([3]; pure peptide, 0.5% w/v) | nanofiber height (AFM cross section) ([3]; pure peptide, 0.5% w/v matrix) | TPSAB1 expression level, normalized to ACTB (TPSAB1 (tryptase) mRNA) [percentage] | LAD2 degranulation (β-hex release) (LAD2 cells [4]) | β-hex release (plateau) (LAD2 cells [4]) [%] | F-actin organization / cell morphology of LAD2 cells (LAD2 cells [5]; 2D imaging) | LAD2 cells associated with matrix post-wash (LAD2 cells [5]; 30 min incubation) | degranulation of LAD2 (β-hex release) (LAD2 cells [6]; 0.5% w/v matrix with 20% w/w (RADA)4-GG-(PAMP-12) in insert) [%] | degranulation of LAD2 (β-hex release) (LAD2 cells [6]; matrix of 100% w/w (RADA)4-GG-(PAMP-12) in insert) [%] | effect on LAD2 proliferation (XTT) (LAD2 cells [7]) | degranulation of LAD2 (β-hex release) (LAD2 cells [6]; 0.29 mM PAMP-12 solution in insert) [%] | degranulation of LAD2 (β-hex release) (LAD2 cells [6]; 1.46 mM PAMP-12 solution in insert) [%]
1 | CC(=O)N[C@@H](CCCNC(=N)N)C(=O)N[C@@H](C)C(=O)N[C@@H](CC(=O)O)C(=O)N[C@@H](C)C(=O)N[C@@H](CCCNC(=N)N)C(=O)N[C@@H](C)C(=O)N[C@@H](CC(=O)O)C(=O)N[C@@H](C)C(=O)N[C@@H](CCCNC(=N)N)C(=O)N[C@@H](C)C(=O)N[C@@H](CC(=O)O)C(=O)N[C@@H](C)C(=O)N[C@@H](CCCNC(=N)N)C(=O)N[C@@H](C)C(=O)N[C@@H](CC(=O)O)C(=O)N[C@@H](C)C(N)=O [(RADA)4, RADARADARADARADA, reference compound] | not cytotoxic | no statistically significant effect | – | – | – | – | – | – | – | – | – | – | – | – | – | – | – | – | – | –
2 | CC(=O)N[C@@H](CCCNC(=N)N)C(=O)N[C@@H](C)C(=O)N[C@@H](CC(=O)O)C(=O)N[C@@H](C)C(=O)N[C@@H](CCCNC(=N)N)C(=O)N[C@@H](C)C(=O)N[C@@H](CC(=O)O)C(=O)N[C@@H](C)C(=O)N[C@@H](CCCNC(=N)N)C(=O)N[C@@H](C)C(=O)N[C@@H](CC(=O)O)C(=O)N[C@@H](C)C(=O)N[C@@H](CCCNC(=N)N)C(=O)N[C@@H](C)C(=O)N[C@@H](CC(=O)O)C(=O)N[C@@H](C)C(=O)NCC(=O)NCC(=O)N[C@@H](Cc1ccccc1)C(=O)N[C@@H](CCCNC(=N)N)C(=O)N[C@@H](CCCCN)C(=O)N[C@@H](CCCCN)C(=O)N[C@@H](Cc1c[nH]c2ccccc12)C(=O)N[C@@H](CC(N)=O)C(=O)N[C@@H](CCCCN)C(=O)N[C@@H](Cc1c[nH]c2ccccc12)C(=O)N[C@@H](C)C(=O)N[C@@H](CC(C)C)C(=O)N[C@@H](CO)C(=O)N[C@@H](CCCNC(=N)N)C(N)=O [(RADA)4-GG-(PAMP-12)] | not cytotoxic | no statistically significant effect | 64.2±3.4 | 70.2±7.1 | increased proportionally | > 500 | less than 500 nm | less than 200 nm | thick and short nanofibers and even small nanoparticles | 2.5-3.5 nm | 191.1±12.0 | induced significant degranulation | ~75 | lamellipodia and filopodia were observed | considerable amount of cells retained after washing | 11.1±1.1 | 59.6±3.1 | – | – | –
3 | CC(=O)N[C@@H](Cc1ccccc1)C(=O)N[C@@H](CCCNC(=N)N)C(=O)N[C@@H](CCCCN)C(=O)N[C@@H](CCCCN)C(=O)N[C@@H](Cc1c[nH]c2ccccc12)C(=O)N[C@@H](CC(N)=O)C(=O)N[C@@H](CCCCN)C(=O)N[C@@H](Cc1c[nH]c2ccccc12)C(=O)N[C@@H](C)C(=O)N[C@@H](CC(C)C)C(=O)N[C@@H](CO)C(=O)N[C@@H](CCCNC(=N)N)C(N)=O [PAMP-12, Ac-FRKKWNKWALSR-CONH2, reference compound] | – | – | – | – | – | – | – | – | – | – | 224.2±9.920 | induced significant degranulation | ~75 | – | – | – | – | no statistically significant effect | 65.4±2.6 | 69.5±1.2
